Data on three compounds can be found in patent US20150291645A1, “ISOACTEOSIDE DERIVATIVE AND USE THEREOF” (Sinphar Pharmaceutical Co., Ltd., priority 2014, published 2015).

One assay deals with β-amyloid peptides (Aβ). The conditions noted are these: position of the caffeoyl group (sixth vs fourth), WO 2011/157059 A1; cited from earlier work.
Assay [1] has as its system Aβ40 degrading enzyme activity in Neuro-2a conditioned medium. The experiment in a line: Aβ40 degradation in Neuro-2a conditioned medium (Human Aβ1-40 immunoassay). The class given is biochemical, mouse. Conditions: 50 μM and 100 μM, 24 hours 37° C., FIG. 5.
Method: Experimental method: 2×10^7 of mouse neuroblastoma cells (Neuro-2a) were placed on a T175 culture medium, and after overnight, the T175 culture medium was replaced with 30 mL of a chemical-defined medium incubating for 24 hours. After 24 hours, the chemical-defined medium incubated with the cells, which was called a conditioned medium, was centrifuged for 5 minutes at 13,000 rpm, and supernatant liquid was obtained. 10 ng of Aβ40 and testing medicine were added to 300 μL of the conditioned medium, and the mixture was reacted at 37° C. for 24 hours. Immunoassay kits (Human Aβ1-40 Immunoassay kits, Cat.KHB3482, Life Technologies) were used to measure the remaining amount of Aβ in each reaction to examine whether the medicine can improve the activity for enzyme in the medium to degrade Aβ. One not adding any testing medicine (i.e. only containing 10 ng of Aβ40) was a control, and the measured level of Aβ was set to 100%. The levels of Aβ after treated by the testing medicine were compared to the control and expressed in percentage. […] The statistical differences between the control and the testing samples were analyzed by Dunnett's multiple comparison test, which “*” represented p<0.05; “**” represented p<0.01; “***” represented p<0.001; and “****” represented p<0.0001.

Structures are written as SMILES.

As to `C[C@@H]1O[C@@H](O[C@@H]2[C@@H](O)[C@H](OCCc3ccc(O)c(O)c3)O[C@H](COC(=O)/C=C/c3ccc(O)c(O)c3)[C@H]2O)[C@H](O)[C@H](O)[C@H]1O` [isoacteoside], the “activity of inhibiting β-amyloid peptides (Aβ) accumulation” value in the assay with β-amyloid peptides (Aβ) is “better”.
On to `O=C(/C=C/c1ccc(O)c(O)c1)OCC1OC(OCCc2ccc(O)c(O)c2)C(O)C(O)C1O` (stereo not drawn) [Sample 9], for which, in assay [1], the “extracellular Aβ40 degradation” value is “could effectively improve extracellular Aβ40 degradation”.
As for `C[C@@H]1O[C@@H](O[C@@H]2[C@@H](O)[C@H](OCCc3ccc(O)c(O)c3)O[C@H](CO)[C@H]2OC(=O)/C=C/c2ccc(O)c(O)c2)[C@H](O)[C@H](O)[C@H]1O` [acteoside], the “activity of inhibiting β-amyloid peptides (Aβ) accumulation” value in the assay with β-amyloid peptides (Aβ) is “the activity decreased”.
